The text below walks through data of ChEMBL document CHEMBL1201862, “PubChem BioAssay data set” (2004).

Holding throughout (test): growth of human tumour cells (NCI), 48 h
Test [1] relates to NCI-H226.
Test [2] concerns TK-10.
Test [3] relates to HOP-92.
For test [4], the system named is T47D.
For test [5], the system named is NCI-H522.
In test [6] the test system is MDA-MB-231.
Test [7] deals with M14.
For test [8], the system named is LOX IMVI.
The test system of test [9] is MDA-N.
Test [10] deals with EKVX.
Test [11] concerns SF-295.
In test [12] the test system is DU-145.
Test [13] has as its system NCI-H460.
The test system of test [14] is COLO 205.
Test [15] deals with SNB-19.
In test [16] the test system is OVCAR-8.
Test [17] relates to Malme-3M.
For test [18], the system named is A549.
Test [19] has as its system MOLT-4.

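Dose response: 5 concentrations. Exposure: 48 h. Format: 96-well plates. Endpoint: linear interpolation; highest concentration if not reached. Abbreviation: GI50, concentration required for 50% inhibition of growth.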 Calls of active or inactive are those of the source. No stated cut-off is given here; in the data, active = GI50 up to about 1.1 µM and inactive = higher.

Consider `Cn1c(=O)c2[nH]c(CCC(=O)O)nc2n(C)c1=O`, for which the GI50 in [1], in [2], in test [3], in test [4], in test [5] and in test [6] was > 100 µM (inactive) in each case. For the same compound, the GI50 in test [7], in [8], in [9], in test [10], in [11] and in [12] was > 100 µM (inactive) each time. In addition, the GI50 in test [13], in [14], in [15], in test [16], in test [17] and in [18] was > 100 µM (inactive) in each case.

In the case of `c1cncc(-c2cc(-c3cc(-c4cccnc4)[nH]n3)n[nH]2)c1`, the GI50 in [1], in test [2], in test [3], in test [4], in test [19] and in [5] was > 100 µM (inactive) throughout. Moreover, the GI50 in [6], in [7], in test [8], in [9], in [10] and in test [11] was > 100 µM (inactive) each time. Further, the GI50 in test [12], in test [13], in test [14], in [15], in [16] and in [17] was > 100 µM (inactive) in each case. In test [18], the GI50 was > 100 µM (inactive).

In the case of `CC(=O)NCCCCN(CCCNC(C)=O)C(=O)CNS(=O)(=O)c1cccc2c(N(C)C)cccc12`, the GI50 in [1], in test [2], in test [3], in test [4], in test [19] and in test [5] was > 100 µM (inactive) in each case. The GI50 in test [6], in test [7], in test [8], in test [9], in test [10] and in test [11] was > 100 µM (inactive) throughout. Also, the GI50 in test [12], in [13], in test [14], in test [15], in [17] and in test [18] was > 100 µM (inactive) in each case.

For `CSc1ncc2c(n1)C(C#N)C1Sc3ccccc3N1C2=O` (stereo unspecified), the GI50 is > 100 µM (inactive) in test [1]; 90.4 µM (inactive) in [2]; 80 µM (inactive) in test [3]; > 100 µM (inactive) in test [4]; > 100 µM (inactive) in test [19]; 62.2 µM (inactive) in [5]. Moreover, the GI50 in test [6] was > 100 µM (inactive); in test [7] it was > 100 µM (inactive); in [8], > 100 µM (inactive); in test [9], > 100 µM (inactive); in [10], > 100 µM (inactive); in test [11] it was 36 µM (inactive). The GI50 in test [12] is > 100 µM (inactive); in [13], > 100 µM (inactive); in test [14], > 100 µM (inactive); in test [15], 53.6 µM (inactive); in test [16], > 100 µM (inactive); in test [17], > 100 µM (inactive). For the same compound, the GI50 in [18] is > 100 µM (inactive).

With `Clc1ccc(/N=C/C=C/Nc2ccc(Cl)cn2)nc1`, the GI50 is 16.1 µM (inactive) in test [1]; 19.1 µM (inactive) in test [2]; 16.3 µM (inactive) in test [3]; 18.3 µM (inactive) in test [4]; 4.74 µM (inactive) in [19]; 14 µM (inactive) in test [5]. For the same compound, the GI50 in test [6] was 5 µM (inactive); in test [7], 16.4 µM (inactive); in [8], 7.73 µM (inactive); in [9], 15.1 µM (inactive); in test [10], 0.714 µM (active); in test [11] it was 16.3 µM (inactive). For the same compound, the GI50 is 17.5 µM (inactive) in [12]; 16 µM (inactive) in test [13]; 12.6 µM (inactive) in [14]; 16 µM (inactive) in [15]; 10.4 µM (inactive) in test [16]; 17.3 µM (inactive) in test [17]. Also, in [18], the GI50 was 14.5 µM (inactive).

In the case of `O=C(O)c1cc(Cl)cc2c1NC1(N2)C(=O)Nc2ccccc21` (stereo unspecified), the GI50 in test [1], in test [2], in test [3], in test [4], in test [19] and in [5] was > 100 µM (inactive) each time. For the same compound, the GI50 is > 100 µM (inactive) in test [6]; > 100 µM (inactive) in [7]; 49 µM (inactive) in test [8]; > 100 µM (inactive) in test [9]; > 100 µM (inactive) in [10]; > 100 µM (inactive) in test [11]. Moreover, the GI50 is > 100 µM (inactive) in test [12]; > 100 µM (inactive) in test [13]; > 100 µM (inactive) in test [14]; > 100 µM (inactive) in test [15]; 39.6 µM (inactive) in test [16]; 69.2 µM (inactive) in [17]. Moreover, in test [18], the GI50 was > 100 µM (inactive).

Regarding `O=C(NCCCl)N(O)C(=O)Nc1ccccc1`, the GI50 in test [1], in [2], in test [3], in test [4], in test [19] and in test [5] was > 100 µM (inactive) each time. For the same compound, the GI50 in test [6] was 67.8 µM (inactive); in test [7] it was > 100 µM (inactive); in [8], > 100 µM (inactive); in test [9], > 100 µM (inactive); in test [10], > 100 µM (inactive); in test [11], > 100 µM (inactive). The GI50 in [12] is 35.4 µM (inactive); in test [13], > 100 µM (inactive); in test [14], > 100 µM (inactive); in test [15], > 100 µM (inactive); in test [16] it was > 100 µM (inactive); in [17], > 100 µM (inactive). The GI50 in [18] is > 100 µM (inactive).

In the case of `Cc1cc(-c2nc3ccc(F)cc3s2)ccc1NC(=O)[C@H](C)N`, the GI50 was 2.7 µM (inactive) in test [1]; 10.7 µM (inactive) in test [3]; 0.0559 µM (active) in test [4]; 2 µM (inactive) in [19]; 7.74 µM (inactive) in test [5]; 10.4 µM (inactive) in test [6]. The GI50 in [7] was 1.95 µM (inactive); in test [8] it was 1.99 µM (inactive); in test [9] it was 2.61 µM (inactive); in [10] it was 8.38 µM (inactive); in test [11], 9.71 µM (inactive); in test [12] it was 12.7 µM (inactive). Besides, the GI50 was 2.14 µM (inactive) in test [13]; 9.77 µM (inactive) in test [14]; 14.3 µM (inactive) in test [15]; 11.6 µM (inactive) in test [16]; 21.3 µM (inactive) in test [17]; 5.83 µM (inactive) in test [18].

With `CC(C)[C@H](NC(=O)[C@@H](O)[C@H](N)Cc1ccccc1)C(=O)N[C@@H](Cc1ccccc1)C(=O)O`, the GI50 in test [1], in test [2], in test [3], in test [4], in test [19] and in test [5] was > 100 µM (inactive) each time. Further, the GI50 in test [6], in [7], in test [8], in test [9], in test [10] and in test [11] was > 100 µM (inactive) each time. The GI50 in test [12], in test [13], in test [14], in test [15], in test [16] and in [17] was > 100 µM (inactive) throughout. The GI50 in test [18] is > 100 µM (inactive).

With `COc1cc(C(=O)N(C)N(C)C)cc(OC)c1OC`, the GI50 in [1], in test [2], in [3], in test [4], in test [19] and in test [5] was > 10 µM (inactive) throughout. Also, the GI50 in test [6], in [7], in [8], in [9], in [10] and in test [11] was > 10 µM (inactive) throughout. Moreover, the GI50 in test [12], in test [13], in test [14], in test [15], in [16] and in [17] was > 10 µM (inactive) in each case. Moreover, in test [18], the GI50 is > 10 µM (inactive).

With `O=C1NC2(CCN(CCc3ccccc3)CC2)Oc2ccccc21`, the GI50 is 61.1 µM (inactive) in test [1]; > 100 µM (inactive) in test [2]; 24.7 µM (inactive) in test [3]; 49.7 µM (inactive) in test [4]; 32.5 µM (inactive) in test [19]; 95.1 µM (inactive) in test [5]. Further, the GI50 in [6] is 88.3 µM (inactive); in test [7], 18.5 µM (inactive); in [8], 53.7 µM (inactive); in test [9], 41.6 µM (inactive); in [10], 69.2 µM (inactive); in [11] it was 49.2 µM (inactive). The GI50 in [12] was > 100 µM (inactive); in test [13], > 100 µM (inactive); in test [14], 31.5 µM (inactive); in [15] it was 85.3 µM (inactive); in test [16], 64.7 µM (inactive); in [17] it was 33.3 µM (inactive). For the same compound, the GI50 in [18] is 64.6 µM (inactive).
